From article PMC3256138, “Disease Progression in MRL/lpr Lupus-Prone Mice Is Reduced by NCS 613, a Specific Cyclic Nucleotide Phosphodiesterase Type 4 (PDE4) Inhibitor” (PLoS ONE, 2012)
Read-outs that look alike come from different tables or passages of the source.

Tests used:
PDE1 = test: IC50 on purified PDE1 isozyme (calmodulin-activated); assay type: biochemical, bovine; settings: 1 µM cGMP substrate, CaM modulator; mean±s.e.m. of three experiments
Experimental: (§1) PDE1, PDE3, PDE4 and PDE5 were isolated by anion exchange chromatography from bovine aortic smooth muscle cytosolic fraction. PDE2 was isolated from human platelets following the method described in [44]. Purified PDEs were stored as small aliquots at −80°C until use. PDE activity was determined at a substrate concentration of 1 µM cAMP or cGMP in the presence of 10,000 cpm [^3H]-cAMP or -cGMP as tracers. PDE1 activity was assessed at 1 µM cGMP in calmodulin-activated state (18 nM calmodulin with 10 µM CaCl2). PDE2 activity was assessed at 1 µM cAMP in activated state (+5 µM cGMP), and PDE3 and PDE4 activities were assessed at 1 µM cAMP in the presence of 1 mM EGTA. […] PDE5 activity was measured at 1 µM cGMP in the presence of 1 mM of EGTA. […] This concentration of DMSO had no effect when tested in control preparation.

PBLs from MRL/lpr mice = test: Ex vivo LPS-induced TNFα secretion by PBLs from treated MRL/lpr mice; assay type: in vivo, mouse; settings: PBLs of 14 week-old mice treated i.v. (100 µg pentoxifylline or denbufylline, 30 µg NCS 613); 5 µg/mL LPS, 24 h
Experimental: Blood samples were pooled from groups of seven 14 week-old treated mice. PBLs were purified by density separation (Lympholyte-M, d = 1.0875; Cedarlane, Hornby, Canada), washed three times, and resuspended at 5×10^6 cells/ml in L-alanyl-L-glutamine-enriched RPMI 1640 medium (Cambrex, Verviers, Belgium) containing 10% (v/v) fetal calf serum (Dutscher, Brumath, France), HEPES, gentamycin and β-mercaptoethanol. They were cultured in duplicate using 5×10^5 cells/well in the presence of 5 µg/mL LPS from E. coli. Culture supernatants were collected after 24 h and stored frozen at −20°C. TNFα levels were determined using a double-sandwich ELISA (PharMingen, San Diego, CA; detection limit 30 pg/mL) according to the manufacturer's instructions.

PDE4 [1] = test: IC50 on purified PDE4 isozyme; assay type: biochemical, bovine; settings: for IC50: 1 µM cAMP substrate, mean±s.e.m. of three experiments
Experimental: as §1

MRL/lpr lupus-prone mice = test: Treatment of MRL/lpr lupus-prone mice with PDE inhibitors: proteinuria, survival, anti-DNA antibodies; settings: for Median survival time / Mice with positive proteinuria: 100 µg i.v. at 5, 7, 9 and 13 weeks; for Mice with positive proteinuria: at 18 weeks of age; for Age at which treated mice started dying / Proteinuria level compared to the control group: i.v. at 5, 7, 9 and 13 weeks; for Age at which treated mice started dying: control 17 weeks; for Proteinuria level compared to the control group: 100 µg pentoxifylline or 30 µg NCS 613
Experimental: All mice were monitored regularly for different clinical and biological parameters over 26 weeks. Measurements of outcome included the evaluation of survival and proteinuria measured on a fresh urine sample. Protein levels were determined using colored strips (Albutix; Bayer Diagnostics, Basingstoke, UK) and scored at values corresponding to 30, 100, 300 and >2000 mg/dL.

[2] = Solubility in injection vehicle PBS-10% ethanol; assay type: physicochemical; settings: at 100 µg/100 µL
human recombinant PDE4D = target: T1, human recombinant PDE4D (Homo sapiens, UniProt Q08499); test: IC50 on human recombinant PDE4D; assay type: biochemical
T1 construct: gift of Ted J. Torphy (SmithKline Beecham Pharmaceuticals, King of Prussia, PA, USA)

PDE3 = target: T2, PDE3 (Bos taurus, UniProt A0A3Q1M1E8); test: IC50 on purified PDE3 isozyme; assay type: biochemical, bovine; settings: 1 µM cAMP substrate; mean±s.e.m. of three experiments
T2 sequence (A0A3Q1M1E8 1-1126): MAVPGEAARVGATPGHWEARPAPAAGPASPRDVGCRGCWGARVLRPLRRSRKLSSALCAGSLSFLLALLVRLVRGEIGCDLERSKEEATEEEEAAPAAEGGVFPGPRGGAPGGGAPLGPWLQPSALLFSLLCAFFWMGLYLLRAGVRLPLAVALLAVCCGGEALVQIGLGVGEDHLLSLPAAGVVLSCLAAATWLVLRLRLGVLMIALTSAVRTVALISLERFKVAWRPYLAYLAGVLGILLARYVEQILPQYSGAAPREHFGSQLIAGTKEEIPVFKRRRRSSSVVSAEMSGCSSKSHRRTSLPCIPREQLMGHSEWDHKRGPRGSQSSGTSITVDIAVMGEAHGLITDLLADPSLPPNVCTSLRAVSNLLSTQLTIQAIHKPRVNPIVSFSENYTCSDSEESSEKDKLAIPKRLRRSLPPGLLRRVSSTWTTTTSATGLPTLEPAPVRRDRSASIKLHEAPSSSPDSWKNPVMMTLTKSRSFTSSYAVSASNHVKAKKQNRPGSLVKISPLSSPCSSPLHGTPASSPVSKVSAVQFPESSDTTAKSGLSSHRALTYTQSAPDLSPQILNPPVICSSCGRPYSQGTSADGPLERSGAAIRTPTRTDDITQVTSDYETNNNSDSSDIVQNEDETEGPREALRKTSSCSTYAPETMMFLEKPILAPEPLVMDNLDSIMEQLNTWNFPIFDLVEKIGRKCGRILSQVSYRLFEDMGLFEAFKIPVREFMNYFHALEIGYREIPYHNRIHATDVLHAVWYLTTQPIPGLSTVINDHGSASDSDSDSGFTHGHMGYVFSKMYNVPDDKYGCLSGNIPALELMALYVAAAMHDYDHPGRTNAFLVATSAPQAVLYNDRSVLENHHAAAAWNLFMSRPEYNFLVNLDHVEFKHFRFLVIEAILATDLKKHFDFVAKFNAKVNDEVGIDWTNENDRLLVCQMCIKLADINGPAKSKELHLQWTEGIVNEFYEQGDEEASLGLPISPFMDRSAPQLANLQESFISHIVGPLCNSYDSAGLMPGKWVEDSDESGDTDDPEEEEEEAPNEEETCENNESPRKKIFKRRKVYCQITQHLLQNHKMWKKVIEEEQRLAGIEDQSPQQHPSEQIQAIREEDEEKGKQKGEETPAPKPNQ
Experimental: PDE2 was isolated from human platelets following the method described in [44]. Purified PDEs were stored as small aliquots at −80°C until use. PDE activity was determined at a substrate concentration of 1 µM cAMP or cGMP in the presence of 10,000 cpm [^3H]-cAMP or -cGMP as tracers. PDE1 activity was assessed at 1 µM cGMP in calmodulin-activated state (18 nM calmodulin with 10 µM CaCl2). […] This concentration of DMSO had no effect when tested in control preparation.

human recombinant PDE4B = target: T3, human recombinant PDE4B (Homo sapiens, UniProt Q07343); test: IC50 on human recombinant PDE4B; assay type: biochemical
T3 construct: gift of Ted J. Torphy (SmithKline Beecham Pharmaceuticals, King of Prussia, PA, USA)

human recombinant PDE4C = target: T4, human recombinant PDE4C (Homo sapiens, UniProt Q08493); test: IC50 on human recombinant PDE4C; assay type: biochemical; settings: 1 µM cAMP; with confidence interval
T4 construct: gift of Ted J. Torphy (SmithKline Beecham Pharmaceuticals, King of Prussia, PA, USA)

acid gastric secretion = tested on: acid gastric secretion; design: method as in PMID 10640302; settings: cited from earlier work
human PBLs = tested on: human PBLs; design: method as in PMID 10640302; settings: read-out: IC50 LPS-induced TNFα secretion by human PBLs; cited from earlier work
PDE2 = target: T5, PDE2 (Homo sapiens, UniProt O00408); test: IC50 on purified PDE2 isozyme (cGMP-activated); assay type: biochemical; settings: 1 µM cAMP substrate, cGMP modulator; mean±s.e.m. of three experiments
T5 construct: PDE2 was isolated from human platelets; from tissue; host or cells: human platelets
Experimental: as §1

PDE5 = target: T6, PDE5 (Bos taurus, UniProt Q28156); test: IC50 on purified PDE5 isozyme; assay type: biochemical, bovine; settings: 1 µM cGMP substrate; mean±s.e.m. of three experiments
T6 construct: isolated by anion exchange chromatography from bovine aortic smooth muscle cytosolic fraction; from tissue; host or cells: bovine aortic smooth muscle cytosolic fraction
Experimental: as §1

PBLs from SLE patients = test: TNFα secretion by PBLs from SLE patients; assay type: cell-based, human; settings: for Effect on LPS-induced TNFα production: 5 µg/mL LPS, 24 h
Experimental: PBLs were isolated by centrifugation on Ficoll-Histopaque (Sigma-Aldrich) and cultured as described above using 5×10^5 cells/well. […] Culture supernatants were collected 24 h later and stored frozen at −20°C before TNFα level determination, as described above.

PDE4 [3] = tested on: PDE4; design: method as in PMID 9191951; settings: text value with reference; cited from earlier work
[4] = target: High Affinity Rolipram Binding Site (HARBS); test: 3H-rolipram binding assay on rat brain membranes; settings: rat brain membrane, 4 nM 3H-rolipram; read-out: Ki toward 3H-rolipram binding (HARBS)
Experimental: The assay was done in 50 mM N-Tris hydroxymethyl methyl-2-aminoethane sulfonic acid/NaOH buffer, pH 7.6, containing 10 mM MgCl2, 0.1 M NaCl and 100 µM 5′AMP. […] Binding assays were started by the addition of 100 µL of rat brain membrane (0.9 mg protein/mL) to the reaction mixture and conducted at 23°C for 1 h under agitation and stopped by the addition of 3 mL of ice-cold reaction buffer and rapid vacuum filtration through Whatman GF/B filters that have been soaked in 0.3% (v/v) polyethylenimine. Filters were washed twice (3 ml of ice-cold reaction buffer without 5′AMP), dried and counted by liquid scintillation. […] Ki and confidence interval values of binding studies were determined by using one site fit Ki GraphPad Prism5 analysis.

human recombinant PDE4A = target: T7, human recombinant PDE4A (Homo sapiens, UniProt P27815); test: IC50 on human recombinant PDE4A; assay type: biochemical
T7 construct: gift of Ted J. Torphy (SmithKline Beecham Pharmaceuticals, King of Prussia, PA, USA)

[5] = 1 µM cAMP, with confidence interval

T7 sequence (P27815 whole entry): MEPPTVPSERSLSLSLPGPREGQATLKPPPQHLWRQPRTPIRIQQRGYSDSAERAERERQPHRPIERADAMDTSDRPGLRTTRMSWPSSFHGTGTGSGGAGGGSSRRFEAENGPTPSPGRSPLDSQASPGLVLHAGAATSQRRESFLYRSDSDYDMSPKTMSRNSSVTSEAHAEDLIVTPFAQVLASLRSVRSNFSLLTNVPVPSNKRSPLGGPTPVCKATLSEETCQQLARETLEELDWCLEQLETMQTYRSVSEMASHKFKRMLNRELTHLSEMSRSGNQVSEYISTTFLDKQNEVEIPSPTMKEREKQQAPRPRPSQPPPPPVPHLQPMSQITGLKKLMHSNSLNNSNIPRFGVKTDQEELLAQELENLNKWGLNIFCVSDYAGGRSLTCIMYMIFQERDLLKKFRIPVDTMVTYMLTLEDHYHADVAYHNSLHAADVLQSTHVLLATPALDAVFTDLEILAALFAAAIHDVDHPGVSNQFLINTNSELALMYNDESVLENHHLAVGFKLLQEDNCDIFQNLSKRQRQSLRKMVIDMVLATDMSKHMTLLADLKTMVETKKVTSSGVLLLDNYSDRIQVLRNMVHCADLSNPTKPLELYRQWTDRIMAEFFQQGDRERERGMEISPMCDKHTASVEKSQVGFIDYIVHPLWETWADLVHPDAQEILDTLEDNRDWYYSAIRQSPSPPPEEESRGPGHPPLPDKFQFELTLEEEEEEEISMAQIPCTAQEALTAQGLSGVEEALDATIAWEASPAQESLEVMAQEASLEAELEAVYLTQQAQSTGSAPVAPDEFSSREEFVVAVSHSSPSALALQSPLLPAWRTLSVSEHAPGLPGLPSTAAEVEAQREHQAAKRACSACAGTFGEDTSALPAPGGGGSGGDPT
T5 sequence (O00408 whole entry): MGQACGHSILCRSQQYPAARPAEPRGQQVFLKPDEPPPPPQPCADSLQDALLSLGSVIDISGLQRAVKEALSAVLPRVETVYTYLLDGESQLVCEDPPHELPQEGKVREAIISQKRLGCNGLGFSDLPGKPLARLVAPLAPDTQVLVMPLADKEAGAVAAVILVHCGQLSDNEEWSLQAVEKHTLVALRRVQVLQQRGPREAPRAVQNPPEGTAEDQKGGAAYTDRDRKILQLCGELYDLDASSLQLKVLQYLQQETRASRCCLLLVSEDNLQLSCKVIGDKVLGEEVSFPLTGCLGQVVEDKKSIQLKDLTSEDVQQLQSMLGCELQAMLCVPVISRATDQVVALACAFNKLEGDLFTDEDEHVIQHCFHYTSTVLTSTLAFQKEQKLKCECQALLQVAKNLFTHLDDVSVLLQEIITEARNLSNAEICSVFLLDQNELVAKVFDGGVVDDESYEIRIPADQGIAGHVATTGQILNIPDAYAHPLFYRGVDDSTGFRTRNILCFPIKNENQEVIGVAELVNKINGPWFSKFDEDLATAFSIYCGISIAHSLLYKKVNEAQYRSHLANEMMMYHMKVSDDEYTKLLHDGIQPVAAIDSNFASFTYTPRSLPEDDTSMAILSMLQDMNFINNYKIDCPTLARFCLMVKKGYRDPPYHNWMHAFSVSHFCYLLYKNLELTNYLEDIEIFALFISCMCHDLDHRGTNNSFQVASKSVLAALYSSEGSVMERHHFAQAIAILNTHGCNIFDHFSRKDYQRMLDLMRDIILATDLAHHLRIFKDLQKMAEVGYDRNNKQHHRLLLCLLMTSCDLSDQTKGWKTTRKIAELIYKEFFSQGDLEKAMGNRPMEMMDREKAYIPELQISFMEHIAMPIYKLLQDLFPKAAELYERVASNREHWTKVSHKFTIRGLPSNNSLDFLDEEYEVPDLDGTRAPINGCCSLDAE
T3 sequence (Q07343 whole entry): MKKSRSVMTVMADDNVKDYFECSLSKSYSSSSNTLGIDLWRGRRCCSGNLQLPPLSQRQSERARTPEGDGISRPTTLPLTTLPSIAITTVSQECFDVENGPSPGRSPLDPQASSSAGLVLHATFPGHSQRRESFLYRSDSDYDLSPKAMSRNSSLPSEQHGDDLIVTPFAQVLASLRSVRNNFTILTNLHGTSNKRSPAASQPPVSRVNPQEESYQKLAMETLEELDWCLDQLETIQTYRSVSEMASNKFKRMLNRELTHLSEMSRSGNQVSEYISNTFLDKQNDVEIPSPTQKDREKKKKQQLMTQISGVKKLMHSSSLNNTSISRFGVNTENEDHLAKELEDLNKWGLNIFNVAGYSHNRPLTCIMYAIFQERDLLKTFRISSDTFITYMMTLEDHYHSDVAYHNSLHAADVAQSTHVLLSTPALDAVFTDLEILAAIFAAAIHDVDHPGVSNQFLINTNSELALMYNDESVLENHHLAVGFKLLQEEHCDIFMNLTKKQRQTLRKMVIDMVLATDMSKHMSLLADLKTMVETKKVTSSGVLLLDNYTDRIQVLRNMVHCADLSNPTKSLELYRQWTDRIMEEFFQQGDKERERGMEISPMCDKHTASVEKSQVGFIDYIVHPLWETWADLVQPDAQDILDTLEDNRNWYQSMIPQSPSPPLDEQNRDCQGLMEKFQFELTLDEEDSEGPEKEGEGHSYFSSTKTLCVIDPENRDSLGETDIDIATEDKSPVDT
T1 sequence (Q08499 whole entry): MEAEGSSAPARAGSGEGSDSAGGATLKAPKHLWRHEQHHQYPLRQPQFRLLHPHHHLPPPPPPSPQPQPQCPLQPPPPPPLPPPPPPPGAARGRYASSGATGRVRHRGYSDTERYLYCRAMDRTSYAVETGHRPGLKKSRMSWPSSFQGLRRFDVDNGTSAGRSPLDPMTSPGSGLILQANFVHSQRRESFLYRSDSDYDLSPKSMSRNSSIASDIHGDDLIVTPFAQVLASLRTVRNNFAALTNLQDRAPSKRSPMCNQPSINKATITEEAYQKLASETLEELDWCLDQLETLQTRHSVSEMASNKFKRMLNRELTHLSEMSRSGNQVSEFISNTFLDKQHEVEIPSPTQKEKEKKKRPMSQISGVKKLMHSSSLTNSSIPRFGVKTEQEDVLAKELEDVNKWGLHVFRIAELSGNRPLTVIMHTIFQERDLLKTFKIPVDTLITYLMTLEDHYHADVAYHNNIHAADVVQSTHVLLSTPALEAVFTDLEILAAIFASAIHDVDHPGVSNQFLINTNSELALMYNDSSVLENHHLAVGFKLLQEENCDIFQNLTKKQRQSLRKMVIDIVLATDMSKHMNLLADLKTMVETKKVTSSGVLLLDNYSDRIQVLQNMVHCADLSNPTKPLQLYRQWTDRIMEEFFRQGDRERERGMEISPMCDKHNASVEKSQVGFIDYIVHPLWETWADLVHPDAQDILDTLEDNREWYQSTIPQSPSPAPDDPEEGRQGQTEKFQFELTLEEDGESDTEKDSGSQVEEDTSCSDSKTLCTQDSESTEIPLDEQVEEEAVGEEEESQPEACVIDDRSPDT
T4 sequence (Q08493 whole entry): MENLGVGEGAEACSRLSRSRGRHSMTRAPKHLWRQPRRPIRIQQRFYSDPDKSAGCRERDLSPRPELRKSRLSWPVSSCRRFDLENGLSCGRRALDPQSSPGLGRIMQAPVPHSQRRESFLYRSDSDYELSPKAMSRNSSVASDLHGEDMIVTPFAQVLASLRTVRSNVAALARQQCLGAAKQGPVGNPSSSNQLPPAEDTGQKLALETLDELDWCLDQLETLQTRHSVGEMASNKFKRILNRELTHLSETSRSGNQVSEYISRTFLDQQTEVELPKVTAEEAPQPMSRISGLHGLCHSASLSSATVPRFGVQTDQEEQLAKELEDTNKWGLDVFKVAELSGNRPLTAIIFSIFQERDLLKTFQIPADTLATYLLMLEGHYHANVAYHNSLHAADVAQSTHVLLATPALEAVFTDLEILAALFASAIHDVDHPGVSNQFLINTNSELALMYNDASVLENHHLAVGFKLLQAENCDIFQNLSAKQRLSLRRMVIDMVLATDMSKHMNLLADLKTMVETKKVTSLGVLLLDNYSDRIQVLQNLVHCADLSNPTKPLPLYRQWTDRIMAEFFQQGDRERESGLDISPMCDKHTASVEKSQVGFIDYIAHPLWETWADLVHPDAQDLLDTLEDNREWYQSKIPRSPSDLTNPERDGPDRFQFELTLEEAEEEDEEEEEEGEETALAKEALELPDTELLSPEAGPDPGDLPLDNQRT

SMILES: CCCCn1c(=O)c2c(ncn2CC(C)=O)n(CCCC)c1=O [Denbufylline, denbufylline]
- IC50 (PDE1): 133 ± 11 µM
- Inhibition rate of LPS-induced TNFα secretion (PBLs from MRL/lpr mice): 70%
- IC50 (PDE4 [1]): 760 ± 50 nM
- Median survival time (MRL/lpr lupus-prone mice): 26.5 weeks
- Mice with positive proteinuria (MRL/lpr lupus-prone mice): around 50%
- Age at which treated mice started dying (MRL/lpr lupus-prone mice): 15 weeks

SMILES: CNc1nc(C(F)(F)F)nc2c1ncn2Cc1ccccc1F [NCS 613]
- Solubility in PBS-10% ethanol [2]: not soluble
- IC50 (human recombinant PDE4D): 14 nM
- IC50 (human recombinant PDE4D; [5]): 14.4 nM
- IC50 (PDE3): > 300 µM
- IC50 (human recombinant PDE4B): 48 nM
- IC50 (human recombinant PDE4B; [5]): 48.1 nM
- IC50 (human recombinant PDE4C): 1.4 nM
- Induction of acid gastric secretion (acid gastric secretion): does not induce
- IC50 (human PBLs): 18 nM
- IC50 (PDE2): 24 ± 3 µM
- IC50 (PDE5): 4.7 ± 0.1 µM
- IC50 (PDE1): 39 ± 2 µM
- Decrease of basal TNFα secretion level (PBLs from SLE patients; 10 µM, no LPS, cells from patient 2): 67%
- Effect on LPS-induced TNFα production (PBLs from SLE patients; patient SLE1, 0.1 µM): No effect
- Effect on LPS-induced TNFα production (PBLs from SLE patients; patient SLE1, 1 µM): significantly suppressed
- Effect on LPS-induced TNFα production (PBLs from SLE patients; patient SLE1, 10 µM): significantly suppressed
- IC50 (PDE4 [3]): 42 nM
- Ki [4]: 148 nM
- Inhibition rate of LPS-induced TNFα secretion (PBLs from MRL/lpr mice): 54%
- IC50 (human recombinant PDE4A): 44 nM
- IC50 (human recombinant PDE4A; [5]): 43.6 nM
- PDE4 selectivity relatively to PDE1 (PDE4 [1]): 930 fold
- PDE4 selectivity relatively to PDE5 (PDE4 [1]): 112 fold
- IC50 (PDE4 [1]): 42 ± 3 nM
- PDE5/PDE4 ratio (PDE4 [1]; ratio of IC50 values PDE5/PDE4): 111.9
- Age of the first mouse that developed proteinuria (MRL/lpr lupus-prone mice; 30 µg i.v. at 5, 7, 9 and 13 weeks): 18 week-old
- Effect on survival of MRL/lpr mice (MRL/lpr lupus-prone mice; 30 µg i.v. at 5, 7, 9 and 13 weeks, P = 0.005): significantly increased
- Mice still alive (MRL/lpr lupus-prone mice; at 31 weeks, 30 µg i.v. at 5, 7, 9 and 13 weeks): 50%
- Proteinuria level compared to the control group (MRL/lpr lupus-prone mice): significantly lower
- Age at which treated mice started dying (MRL/lpr lupus-prone mice): 26 weeks

SMILES: CC(=O)CCCCn1c(=O)c2c(ncn2C)n(C)c1=O [Pentoxifylline, pentoxifylline]
- IC50 (PDE2): 119 ± 10 µM
- IC50 (PDE5): 74 ± 6 µM
- IC50 (PDE1): 236 ± 20 µM
- Inhibition rate of LPS-induced TNFα secretion (PBLs from MRL/lpr mice): 51%
- IC50 (PDE4 [1]): 135000 ± 11000 nM
- Median survival time (MRL/lpr lupus-prone mice): 27.5 weeks
- Mice with positive proteinuria (MRL/lpr lupus-prone mice): around 50%
- Proteinuria level compared to the control group (MRL/lpr lupus-prone mice): significantly lower
- Age at which treated mice started dying (MRL/lpr lupus-prone mice): 22 weeks
